The structures appear in SMILES notation. “And” between values parts separate entries of the source, which are not always exact repeats. Identical values can stand only once.

The results in this text go back to patent US8822691B2, “Pesticidal carboxamides” (Bayer CropScience AG, priority 2009, dated 2014).

Holding throughout (format): in vivo
For one data set, the system named is Lucilia cuprina. Nature of the data set: Lucilia cuprina (48 h) larval test. As to conditions: for mortality at 100 ppm: Lucilia cuprina, 48 h, read-out: activity (larval mortality). As for the experimental part: Species: Lucilia cuprina 1st instar larvae (age 24 hrs)
(§1) Solvent: dimethyl sulfoxide
10 mg active compound are dissolve in 0.5 ml dimethyl sulfoxide. Serial dilutions are made to obtain the desired rates. Approximately 20 Lucilia cuprina 1st instar larvae are transferred into a test tube containing 1 cm^3 of minced horse meat and 0.5 ml aqueous dilution of test compound. After 48 hrs percentage of larval mortality are recorded. 100% efficacy all larvae are killed, % efficacy normally developed larvae after 48 hrs.

The test system of the next data set is Ctenocephalides felis. Nature of the data set: Ctenocephalides felis-test (CTECFE). As to conditions: adult unfed fleas, after 2 days; for activity (mortality): application rate of 100 ppm in cattle blood; for mortality at 100 ppm: Ctenocephalides felis, in Bos taurus, 48 h, read-out: activity (mortality), application rate of 100 ppm in cattle blood. The method, then: as §1
To produce a suitable preparation of active compound, 10 mg of active compound are dissolved in 0.5 ml solvent, and the concentrate is diluted with cattle blood to the desired concentration. Approximately 20 adult unfed (Ctenocepahlides felis) are placed in flea chambers. The blood chamber, sealed with parafilm on the bottom, are filled with cattle blood supplied with compound solution and placed on top of the flea chamber, so that the fleas are able to suck the blood. The blood chamber is heated to 37° C. whereas the flea chamber is kept at room temperature. After 2 days mortality in % is determined. 100% means that all the fleas have been killed; 0% means that none of the fleas have been killed.

The test system of a further data set is Aulacophora femoralis. The data set is described as follows: Test against cucurbit leaf beetle (Aulacophora femoralis), leaf dip. Particulars: active compound concentration of 500 ppm, second instar larvae on cucumber leaves, after 7 days; for pest or weed control at 500 ppm: Aulacophora, foliar, 168 h, read-out: insecticidal activity. The method, then:
(§2) Unless not mentioned otherwise, the test solutions were prepared as follows:
(§3) Containing as solvent: Dimethylformamide, 3 parts by weight; and as emulsifier: Polyoxyethylene alkyl phenyl ether, 1 part by weight
(§4) To prepare the test solution, 1 part by weight of an active compound is mixed with the above-mentioned amount of solvent containing the above-mentioned amount of emulsifier, and the mixture is diluted with water to the desired concentration.
Leaves of cucumber were immersed in the test solution at the appropriate concentration, and the leaves were dried in air. The leaves were then put in a plastic cup containing sterilized black soil and five Aulacophora femoralis at second instar larvae were released in the cup. The cups were placed in a temperature-controlled chamber at 25° C. After 7 days, the number of dead larvae was counted, and thus the insecticidal activity was calculated. An insecticidal activity of 100% means that all larvae were killed, whereas an insecticidal activity of 0% means that no larva was killed.

A further data set concerns Tetranychus urticae. Nature of the data set: Test against two-spotted spider mite (Tetranychus urticae), spray. As to conditions: active compound concentration of 500 ppm, adult mites on kidney bean, after 7 days; for pest or weed control at 500 ppm: Tetranychus urticae, 168 h, read-out: acaricidal activity. The method, then:
as §2, §3, §4
50 to 100 adult mites of Tetranychus urticae were inoculated to leaves of kidney bean at two-leaf stage planted in a pot of 6 cm in diameter. After one day, test solution at the appropriate concentration was sprayed thereon in a sufficient amount using a spray gun. After the spraying, the plant pot was placed inside a greenhouse, and after 7 days, the acaricidal activity was calculated. An acaricidal activity of 100% means that all mites were killed, whereas an acaricidal activity of 0% means that no mite was killed.

The test system of a further data set is Spodoptera litura. The data set is described as follows: Test against tobacco cutworm (Spodoptera litura) larvae, leaf dip. As to conditions: active compound concentration of 100 ppm, third instar larvae on sweet potato leaves, after 7 days; for pest or weed control at 100 ppm: foliar, 168 h, read-out: insecticidal activity. As for the experimental part:
as §2, §3, §4
Leaves of sweet potato were immersed in the test solution at the appropriate concentration, and the leaves were dried in air. The leaves were then placed in a petri dish having a diameter of 9 cm, and ten Spodoptera litura at third instar larvae were released therein. The petri dishes were placed in a temperature-controlled chamber at 25° C. After 2 days and 4 days more sweet potato leaves were added. After 7 days, the number of dead larvae was counted to calculate the insecticidal activity. An insecticidal activity of 100% means that all larvae were killed, whereas an insecticidal activity of 0% means that no larva was killed. In the current test, the results of two petri dishes for each treatment were averaged.

For data set [1], the system named is Boophilus microplus. Nature of the data set: Boophilus microplus (dip). As to conditions: for mortality at 100 ppm: Rhipicephalus microplus, 168 h, read-out: activity (mortality). As for the experimental part:
Solvent: Dimethylsulfoxid
To produce a suitable preparation of active compound, 10 mg of active compound are dissolved in 0.5 ml solvent, and the concentrate is diluted with water to the desired concentration. Eight to ten adult engorged female Boophilus microplus ticks are placed in perforated plastic beakers and immersed in aqueous compound solution for one minute. Ticks are transferred to a filter paper in a plastic tray. Egg deposition of fertile eggs is monitored after. After 7 days mortality in % is determined. 100% means that all the ticks have been killed; 0% means that none of the ticks have been killed.

The test system of another data set is Musca domestica. Nature of the data set: Musca domestica-test. Particulars: for activity (mortality): application rate of 100 ppm, adults, after 2 days; for mortality at 100 ppm: Musca domestica, 48 h, read-out: activity (mortality). The method, then:
as §1
To produce a suitable preparation of active compound, 10 mg of active compound are dissolved in 0.5 ml solvent, and the concentrate is diluted with water to the desired concentration. Prior to the assay, a piece of kitchen sponge is soaked with a mixture of sugar and compound solution and placed into a container. 10 adults (Musca domestica) are placed into the container and closed with a perforated lid. After 2 days mortality in % is determined. 100% means that all the flies have been killed; 0% means that none of the flies have been killed.

Data set [2] concerns Boophilus microplus. The data set is described as follows: Boophilus microplus-test (injection). Particulars: Rhipicephalus microplus, 168 h, read-out: activity (mortality in %; 100% means that all eggs are infertile). As for the experimental part:
as §1
To produce a suitable preparation of active compound, 10 mg of active compound are dissolved in 0.5 ml solvent, and the concentrate is diluted with solvent to the desired concentration. Five adult engorged female ticks (Boophilus microplus) are injected with 1 μl compound solution into the abdomen. Ticks are transferred into replica plates and incubated in a climate chamber for a period of time. Egg deposition of fertile eggs is monitored.
After 7 days mortality in % is determined. 100% means that all eggs are infertile; 0% means that all eggs are fertile.

For `N#Cc1ccc2cc(C(=O)Nc3c(Br)cc(C(F)(F)F)cc3Br)ccc2n1` [2-3], the “activity (larval mortality)” value in the data set on Lucilia cuprina (application rate of 100 ppm, 1st instar larvae, after 48 hrs) was 80%. In addition, the “activity (mortality)” value in the data set with Ctenocephalides felis came to 90%. The same compound had an insecticidal activity with Aulacophora femoralis of 100%.

In the data set with Tetranychus urticae, `N#Cc1ccc2cc(C(=O)Nc3c(I)cc(C(F)(C(F)(F)F)C(F)(F)F)cc3I)ccc2n1` [2-69] registered an acaricidal activity of 100%. Besides, the insecticidal activity in the data set on Spodoptera litura and in the data set with Aulacophora femoralis was 100% throughout. In addition, in the data set with Boophilus microplus [1] (application rate of 100 ppm, dip of adult engorged female ticks for one minute, after 7 days), the “activity (mortality)” value worked out at 100%.

Turning to `CCc1cc(C(F)(C(F)(F)F)C(F)(F)C(F)(F)F)cc(C)c1NC(=O)c1ccc2nc(C#N)ccc2c1` (centres unmarked) [2-90], in the data set on Musca domestica, the “activity (mortality)” value is on record as 80%. Besides, the acaricidal activity with Tetranychus urticae is given as 100%. Further, the insecticidal activity in the data set with Spodoptera litura and in the data set with Aulacophora femoralis was 100% in each case.

With `O=C(Nc1c(Br)cc(C(F)(C(F)(F)F)C(F)(F)C(F)(F)F)cc1Br)c1ccc2ncccc2c1` (centres unmarked) [2-108], the “activity (mortality)” value in the data set on Ctenocephalides felis was 80% and 95%; with Musca domestica, 80%. Moreover, the insecticidal activity in the data set with Spodoptera litura and in the data set with Aulacophora femoralis was 100% in each case.

Turning to `N#Cc1ccc2cc(C(=O)Nc3c(Br)cc(C4(F)C(F)(F)C(F)(F)C(F)(F)C(F)(F)C4(F)F)cc3Br)ccc2n1` [2-133], the “activity (mortality)” value with Ctenocephalides felis was found to be 90%. Moreover, the acaricidal activity in the data set on Tetranychus urticae is 100%. Besides, the insecticidal activity in the data set on Spodoptera litura and with Aulacophora femoralis was 100% in each case.

As to `Cc1cc(C(F)(C(F)(F)F)C(F)(F)F)cc(C)c1NC(=O)c1cc(Cl)c2ncc(Cl)cc2c1` [2-214, 3,8-dichloro-N-[4-(1,1,1,2,3,3,3-heptafluoropropan-2-yl)-2,6-dimethylphenyl]quinoline-6-carboxamide], the mortality (usually the percentage killed) at 100 ppm with Lucilia cuprina was 90%. In addition, the pest or weed control at 100 ppm with Spodoptera litura amounted to 100%. Besides, in the data set with Aulacophora femoralis, the pest or weed control at 500 ppm amounted to 100%. For the same compound, in the data set on Boophilus microplus [2], the mortality at 0.02 mg was determined as 100%.

Turning to `Cc1cc(C(F)(C(F)(F)F)C(F)(F)F)cc(C)c1NC(=O)c1ccc2nc(C#N)ccc2c1` [Compound No. 2-20, 2-cyano-N-[4-(1,1,1,2,3,3,3-heptafluoropropan-2-yl)-2,6-dimethylphenyl]quinoline-6-carboxamide], the mortality at 100 ppm in the data set on Lucilia cuprina amounted to 100%; with Ctenocephalides felis, 100%; with Musca domestica, 95%. In addition, the pest or weed control at 100 ppm in the data set with Spodoptera litura is 100%. Also, the pest or weed control at 500 ppm in the data set with Aulacophora femoralis was determined as 100%. In addition, the mortality at 0.02 mg in the data set with Boophilus microplus [2] came out at 100%.

For `N#Cc1ccc2cc(C(=O)Nc3c(Br)cc(C(F)(C(F)(F)F)C(F)(F)F)cc3OC(F)F)ccc2n1` [Compound No. 2-154, N-[2-bromo-6-(difluoromethoxy)-4-(1,1,1,2,3,3,3-heptafluoropropan-2-yl)phenyl]-2-cyanoquinoline-6-carboxamide], the pest or weed control at 500 ppm with Tetranychus urticae and with Aulacophora femoralis was 100% throughout. In addition, the pest or weed control at 100 ppm in the data set with Spodoptera litura was determined as 100%. In the data set on Boophilus microplus [1], the mortality at 100 ppm came out at 90%.

As for `N#Cc1ccc2cc(C(=O)Nc3c(Br)cc(C(F)(C(F)(F)F)C(F)(F)C(F)(F)F)cc3OC(F)F)ccc2n1` (centres unmarked) [Compound No. 2-173, N-[2-bromo-6-(difluoromethoxy)-4-(1,1,1,2,3,3,4,4,4-nonafluorobutan-2-yl)phenyl]-2-cyanoquinoline-6-carboxamide], the pest or weed control at 500 ppm in the data set with Tetranychus urticae and with Aulacophora femoralis was 100% each time. Besides, the pest or weed control at 100 ppm in the data set with Spodoptera litura is 100%. Moreover, the mortality at 100 ppm in the data set on Boophilus microplus [1] turned out to be 100%.

`O=C(Nc1c(I)cc(C(F)(C(F)(F)F)C(F)(F)C(F)(F)F)cc1OC(F)F)c1ccc2ncccc2c1` (centres unmarked) [Compound No. 2-174, N-[2-(difluoromethoxy)-6-iodo-4-(1,1,1,2,3,3,4,4,4-nonafluorobutan-2-yl)phenyl]quinoline-6-carboxamide]: the mortality at 100 ppm in the data set with Lucilia cuprina, with Ctenocephalides felis and with Musca domestica was 100% in each case. Besides, the pest or weed control at 500 ppm in the data set on Tetranychus urticae and in the data set with Aulacophora femoralis was 100% each time. Also, the pest or weed control at 100 ppm in the data set with Spodoptera litura was 100%. Further, the mortality at 0.02 mg in the data set on Boophilus microplus [2] was found to be 100%.

Turning to `O=C(Nc1c(Br)cc(C(F)(C(F)(F)F)C(F)(F)Br)cc1OC(F)F)c1ccc2ncccc2c1` (centres unmarked) [Compound No. 2-201, N-[2-bromo-4-(1-bromo-1,1,2,3,3,3-hexafluoropropan-2-yl)-6-(difluoromethoxy)phenyl]quinoline-6-carboxamide], the mortality at 100 ppm with Lucilia cuprina, with Ctenocephalides felis and in the data set with Musca domestica was 100% in each case. Also, the pest or weed control at 500 ppm with Tetranychus urticae and in the data set with Aulacophora femoralis was 100% in each case. In addition, the pest or weed control at 100 ppm in the data set on Spodoptera litura is 100%. Also, the mortality at 0.02 mg in the data set on Boophilus microplus [2] was found to be 100%.

Consider `O=C(Nc1c(Br)cc(C(F)(C(F)(F)F)C(F)(F)Br)cc1OC(F)F)c1ccc2c(ccc[n+]2[O-])c1` (centres unmarked) [Compound No. 2-202, N-[2-bromo-4-(1-bromo-1,1,2,3,3,3-hexafluoropropan-2-yl)-6-(difluoromethoxy)phenyl]quinoline-6-carboxamide 1-oxide], for which the mortality at 100 ppm in the data set on Lucilia cuprina stood at 100%; in the data set with Ctenocephalides felis, 95%; with Musca domestica, 100%. Further, the pest or weed control at 500 ppm in the data set on Tetranychus urticae and with Aulacophora femoralis was 100% each time. Also, the mortality at 0.02 mg with Boophilus microplus [2] worked out at 100%.

Take `Cc1cc(C(F)(C(F)(F)F)C(F)(F)F)cc(C)c1NC(=O)c1ccc2ncc(Cl)cc2c1` [Compound No. 2-213, 3-chloro-N-[4-(1,1,1,2,3,3,3-heptafluoropropan-2-yl)-2,6-dimethylphenyl]quinoline-6-carboxamide]: the mortality at 100 ppm with Lucilia cuprina turned out to be 100%; with Musca domestica, 80%. The pest or weed control at 100 ppm in the data set on Spodoptera litura stood at 100%. Besides, the pest or weed control at 500 ppm with Aulacophora femoralis is 100%. The mortality at 0.02 mg with Boophilus microplus [2] is 100%.
